Each structure is given as a SMILES string.

As a reminder, the EC50 is the concentration that produces a half-maximal response. Read a high EC50 as a need for much substance.

The target in this assay is T1, His-p53 Y220C (94-294) protein (Homo sapiens, UniProt P04637, Y220C).
T1 construct: His-p53 Y220C (94-294) protein
In words: In vitro DNA binding assay (HTRF). The class given is biochemical. Conditions: % activation normalized to 2 μM Ref-1a high control.
With `COc1cc(C(=O)NC2CCN(C)CC2)ccc1NCC#Cc1sc2c(NC3CCN(C)CC3F)cccc2c1CC(F)(F)F` (racemic) [Example 47, 4-((3-(7-((3-fluoro-1-methylpiperidin-4-yl)amino)-3-(2,2,2-trifluoroethyl)benzo[b]thiophen-2-yl)prop-2-yn-1-yl)amino)-3-methoxy-N-(1-methylpiperidin-4-yl)benzamide], the response was half-maximal at 0.02 µM (EC50).
Compound `CN1CC[C@@H](Nc2cccc3c(CC(F)(F)F)c(C#CCNc4cc(P(C)(C)=O)n[nH]4)sc23)[C@@H](F)C1` [Example 204, (5-((3-(7-(((3S,4R)-3-fluoro-1-methylpiperidin-4-yl)amino)-3-(2,2,2-trifluoroethyl)benzo[b]thiophen-2-yl)prop-2-yn-1-yl)amino)-1H-pyrazol-3-yl)dimethylphosphine oxide] yielded an EC50 of 0.816 µM.
In the case of `CN1CCC(Nc2cccc3c(CC(F)(F)F)c(C#CCNc4ccc(S(C)(=O)=O)cc4OCC(F)(F)F)sc23)CC1` [Example 13, 1-methyl-N-(2-(3-((4-(methylsulfonyl)-2-(2,2,2-trifluoroethoxy)phenyl)amino)prop-1-yn-1-yl)-3-(2,2,2-trifluoroethyl)benzo[b]thiophen-7-yl)piperidin-4-amine], the half-maximal effective concentration (EC50) worked out at 0.17 µM.
Regarding `CCP(=O)(CC)c1ccc(NCC#Cc2sc3c(N[C@@H]4CCN(C5CCOCC5)C[C@@H]4F)cccc3c2CC(F)(F)F)c(OC)c1` [Example 156, diethyl(4-((3-(7-(((3S,4R)-3-fluoro-1-(tetrahydro-2H-pyran-4-yl)piperidin-4-yl)amino)-3-(2,2,2-trifluoroethyl)benzo[b]thiophen-2-yl)prop-2-yn-1-yl)amino)-3-methoxyphenyl)phosphine oxide], the EC50 was 0.108 µM.
`COc1cc(S(C)(=O)=O)ccc1NCC#Cc1sc2c(NC3CCN(C)CC3)ccc(F)c2c1CC(F)(F)F` [Example 51, N-(4-fluoro-2-(3-((2-methoxy-4-(methylsulfonyl)phenyl)amino)prop-1-yn-1-yl)-3-(2,2,2-trifluoroethyl)benzo[b]thiophen-7-yl)-1-methylpiperidin-4-amine] had an EC50 of 0.479 µM.
With `COc1cc(S(N)(=O)=O)ccc1NCC#Cc1sc2c(NC3CCN(C)CC3)cccc2c1CC(F)(F)F` [Example 23, 3-methoxy-4-((3-(7-((1-methylpiperidin-4-yl)amino)-3-(2,2,2-trifluoroethyl)benzo[b]thiophen-2-yl)prop-2-yn-1-yl)amino)benzenesulfonamide] the figure was 0.1 µM; with `COc1cc(P(=O)(C2CC2)C2CC2)ccc1NCC#Cc1sc2c(N[C@H]3CCN(C)C[C@H]3F)cccc2c1CC(F)(F)F` [Example 140, dicyclopropyl(4-((3-(7-(((3R,4S)-3-fluoro-1-methylpiperidin-4-yl)amino)-3-(2,2,2-trifluoroethyl)benzo[b]thiophen-2-yl)prop-2-yn-1-yl)amino)-3-methoxyphenyl)phosphine oxide], 0.129 µM; with `COc1cc(S(C)(=O)=O)ccc1NCC#Cc1sc2c(N[C@H]3CC[C@H](N4CC5(COC5)C4)CC3)cccc2c1CC(F)(F)F` [Example 17, trans-N-(4-(2-oxa-6-azaspiro[3.3]heptan-6-yl)cyclohexyl)-2-(3-((2-methoxy-4-(methylsulfonyl)phenyl)amino)prop-1-yn-1-yl)-3-(2,2,2-trifluoroethyl)benzo[b]thiophen-7-amine], 0.072 µM.
With `COc1cc(S(C)(=O)=O)ccc1NCC#Cc1sc2c(NC3CCC(N(C)C)CC3)cccc2c1CC(F)(F)F` (stereo not shown) [Example 16, N1-(2-(3-((2-methoxy-4-(methylsulfonyl)phenyl)amino)prop-1-yn-1-yl)-3-(2,2,2-trifluoroethyl)benzo[b]thiophen-7-yl)-N4,N4-dimethylcyclohexane-1,4-diamine] the figure was 0.124 µM.
With `COc1cc(S(C)(=O)=O)ccc1NCC#Cc1sc2c(NC3CCNCC3)cccc2c1CC(F)(F)F` [Example 38, N-(2-(3-((2-methoxy-4-(methylsulfonyl)phenyl)amino)prop-1-yn-1-yl)-3-(2,2,2-trifluoroethyl)benzo[b]thiophen-7-yl)piperidin-4-amine] the figure was 0.194 µM.
For the compound `CN1CCC(Nc2cccc3c(CC(F)(F)F)c(C#CCNc4ccc(S(C)(=O)=O)cc4OCF)sc23)CC1` [Example 11, N-(2-(3-((2-(fluoromethoxy)-4-(methylsulfonyl)phenyl)amino)prop-1-yn-1-yl)-3-(2,2,2-trifluoroethyl)benzo[b]thiophen-7-yl)-1-methylpiperidin-4-amine], the response was half-maximal at 0.114 µM (EC50).
With `COc1cc(S(=O)(=O)N(C)C)ccc1NCC#Cc1sc2c(NC3CCN(C)CC3)cccc2c1CC(F)(F)F` [Example 21, 3-methoxy-N,N-dimethyl-4-((3-(7-((1-methylpiperidin-4-yl)amino)-3-(2,2,2-trifluoroethyl)benzo[b]thiophen-2-yl)prop-2-yn-1-yl)amino)benzenesulfonamide] the figure was 0.341 µM; with `COc1cc(C(=O)N2CCS(=O)(=O)CC2)ccc1NCC#Cc1sc2c(N[C@H]3CCN(C)C[C@H]3F)cccc2c1CC(F)(F)F` (racemic) [Example 48, (1,1-dioxidothiomorpholino)(4-((3-(7-(((3R,4S)-3-fluoro-1-methylpiperidin-4-yl)amino)-3-(2,2,2-trifluoroethyl)benzo[b]thiophen-2-yl)prop-2-yn-1-yl)amino)-3-methoxyphenyl)methanone], 0.084 µM.
With `CCP(=O)(CC)c1ccc(NCC#Cc2sc3c(NC4CCN(C)CC4F)cccc3c2CC(F)(F)F)c(OC)c1` (stereo not shown) [Example 35, diethyl(4-((3-(7-(((Z)-3-fluoro-1-methylpiperidin-4-yl)amino)-3-(2,2,2-trifluoroethyl)benzo[b]thiophen-2-yl)prop-2-yn-1-yl)amino)-3-methoxyphenyl)phosphine oxide] the figure was 0.038 µM; with `COc1cc(S(C)(=O)=O)c(F)cc1NCC#Cc1sc2c(NC3CCN(C)CC3)cccc2c1CC(F)(F)F` [Example 7, N-(2-(3-((5-fluoro-2-methoxy-4-(methylsulfonyl)phenyl)amino)prop-1-yn-1-yl)-3-(2,2,2-trifluoroethyl)benzo[b]thiophen-7-yl)-1-methylpiperidin-4-amine], 0.2 µM.
`COc1nc(P(C)(C)=O)ccc1NCC#Cc1sc2c(N[C@@H]3CCN(C4CCOCC4)C[C@@H]3F)cccc2c1CC(F)(F)F` [Example 179, (5-((3-(7-(((3S,4R)-3-fluoro-1-(tetrahydro-2H-pyran-4-yl)piperidin-4-yl)amino)-3-(2,2,2-trifluoroethyl)benzo[b]thiophen-2-yl)prop-2-yn-1-yl)amino)-6-methoxypyridin-2-yl)dimethylphosphine oxide]: the EC50 worked out at 0.134 µM.
With `COc1cc(S(C)(=O)=O)ccc1NCC#Cc1sc2c(NCC3CCN(C)CC3)cccc2c1CC(F)(F)F` [Example 56, 2-(3-((2-methoxy-4-(methylsulfonyl)phenyl)amino)prop-1-yn-1-yl)-N-((1-methylpiperidin-4-yl)methyl)-3-(2,2,2-trifluoroethyl)benzo[b]thiophen-7-amine] the figure was 0.284 µM.
Consider `CN1CCC(Nc2cccc3c(CC(F)(F)F)c(C#CCNc4ccc(S(C)(=O)=O)cc4OCC(F)F)sc23)CC1` [Example 12, N-(2-(3-((2-(2,2-difluoroethoxy)-4-(methylsulfonyl)phenyl)amino)prop-1-yn-1-yl)-3-(2,2,2-trifluoroethyl)benzo[b]thiophen-7-yl)-1-methylpiperidin-4-amine], for which the EC50 was 0.141 µM.
With `COc1cc(S(C)(=O)=O)ccc1NCC#Cc1sc2c(N(C)C3CCN(C)CC3F)cccc2c1CC(F)(F)F` (stereo not shown) [Example 42, (Z)-3-fluoro-N-(2-(3-((2-methoxy-4-(methylsulfonyl)phenyl)amino)prop-1-yn-1-yl)-3-(2,2,2-trifluoroethyl)benzo[b]thiophen-7-yl)-N,1-dimethylpiperidin-4-amine] the figure was 0.654 µM; with `COc1cc(P(C)(C)=O)ccc1NCC#Cc1sc2c(NC3CCN(C)CC3C#N)cccc2c1CC(F)(F)F` (stereo not shown) [Example 90, 4-((2-(3-((4-(dimethylphosphoryl)-2-methoxyphenyl)amino)prop-1-yn-1-yl)-3-(2,2,2-trifluoroethyl)benzo[b]thiophen-7-yl)amino)-1-methylpiperidine-3-carbonitrile], 0.272 µM.
With `COc1cc(S(C)(=O)=O)ccc1NCC#Cc1sc2c(NC3CCN(C)CC3)cccc2c1CC(F)(F)F` [Example 3, N-(2-(3-((2-methoxy-4-(methylsulfonyl)phenyl)amino)prop-1-yn-1-yl)-3-(2,2,2-trifluoroethyl)benzo[b]thiophen-7-yl)-1-methylpiperidin-4-amine] the figure was 0.081 µM; with `COc1cc(S(C)(=O)=O)ccc1NCC#Cc1sc2c(NC3CCN(CCF)CC3)cccc2c1CC(F)(F)F` [Example 36, 1-(2-fluoroethyl)-N-(2-(3-((2-methoxy-4-(methylsulfonyl)phenyl)amino)prop-1-yn-1-yl)-3-(2,2,2-trifluoroethyl)benzo[b]thiophen-7-yl)piperidin-4-amine], 0.305 µM; with `COc1cc(P(C)(C)=O)cnc1NCC#Cc1sc2c(N[C@@H]3CCN(C)C[C@@H]3F)cccc2c1CC(F)(F)F` [Example 207, (6-((3-(7-(((3S,4R)-3-fluoro-1-methylpiperidin-4-yl)amino)-3-(2,2,2-trifluoroethyl)benzo[b]thiophen-2-yl)prop-2-yn-1-yl)amino)-5-methoxypyridin-3-yl)dimethylphosphine oxide], 0.126 µM.
With `CN1CC[C@H](Nc2cccc3c(CC(F)(F)F)c(C#CCNc4ccc(P(C)(C)=O)cc4OC(F)(F)F)sc23)[C@H](F)C1` [Example 137, (4-((3-(7-(((3R,4S)-3-fluoro-1-methylpiperidin-4-yl)amino)-3-(2,2,2-trifluoroethyl)benzo[b]thiophen-2-yl)prop-2-yn-1-yl)amino)-3-(trifluoromethoxy)phenyl)dimethylphosphine oxide] the figure was 0.078 µM.
With `CNC(=O)c1ccc(NCC#Cc2sc3c(NC4CCN(C)CC4)cccc3c2CC(F)(F)F)c(OC)c1` [Example 8, 3-methoxy-N-methyl-4-((3-(7-((1-methylpiperidin-4-yl)amino)-3-(2,2,2-trifluoroethyl)benzo[b]thiophen-2-yl)prop-2-yn-1-yl)amino)benzamide], the response was half-maximal at 0.112 µM (EC50).

These data come from patent publication US20240400591A1 (Jacobio Pharmaceuticals Co., Ltd., priority 2021, published 2024).
